Test [1] relates to SA3-6A/B (DNA, aptamer) TGCGGAGGAAGGTTCGACCATCGTGCGGGTAGGTAGACC/GAACCTGGGGGAGTAGGTCTACCTACCCGCACGATGGTC
The test can be described thus: UV melting, first-peak height. The conditions noted are these: 150 mM NaCl, 5 mM MgCl2; 10 mM HEPES pH 7.4; 100 µM guanosine negative control; signal close to that of 5 µM adenosine.

Test [2] shares this test system. The experiment in a line: UV melting at 260 nm. The conditions noted are these: 150 mM NaCl, 5 mM MgCl2; 10 mM HEPES pH 7.4; 100 µM adenosine; 0.9 µM strands; first (aptachain) peak.
Test [3] has as its system SA5-5A/B (DNA, aptamer) CCTGCGGAGGAAGGTTGACCATCGTGCGGGTAGGTAGA/AACCTGGGGGAGTAGGTCTACCTACCCGCACGATGGTC
The test can be described thus: UV melting at 260 nm. The conditions noted are these: 150 mM NaCl, 5 mM MgCl2; 10 mM HEPES pH 7.4; 100 µM adenosine; 0.9 µM strands; first (aptachain) peak.

In test [4] the test system is SA5-6A/B (DNA, aptamer) CCTGCGGAGGAAGGTTCGACCATCGTGCGGGTAGGTAGA/GAACCTGGGGGAGTAGGTCTACCTACCCGCACGATGGTC
The test can be described thus: UV melting at 260 nm. The following applies: 150 mM NaCl, 5 mM MgCl2; 10 mM HEPES pH 7.4; 100 µM adenosine; 0.9 µM strands; first (aptachain) peak.

Test [5] relates to SA5-8A/B (DNA, aptamer) CCTGCGGAGGAAGGTTCTCGACCATCGTGCGGGTAGGTAGA/GAGAACCTGGGGGAGTAGGTCTACCTACCCGCACGATGGTC
The experiment in a line: UV melting at 260 nm. The conditions noted are these: 150 mM NaCl, 5 mM MgCl2; 10 mM HEPES pH 7.4; 100 µM adenosine; 0.9 µM strands; first (aptachain) peak.

The test system of test [6] is Apta6 (DNA, aptamer) GAACCTGGGGGAGTATTGCGGAGGAAGGTTC
The test can be described thus: UV melting at 260 nm. The conditions noted are these: 150 mM NaCl, 5 mM MgCl2; 10 mM HEPES pH 7.4; 100 µM adenosine; 0.9 µM strand; single hairpin peak.

For test [7], the system named is SA3-5A/B (DNA, aptamer) TGCGGAGGAAGGTTGAGGACCATCGTGCGGGTAGGTAGACC/GAGAACCTGGGGGAGTAGGTCTACCTACCCGCACGATGGTC
The experiment in a line: UV melting at 260 nm. The following applies: 150 mM NaCl, 5 mM MgCl2; 10 mM HEPES pH 7.4; 100 µM adenosine; peak at 28 °C only with adenosine, absent without.

Test [8] has as its system SA3-6A/B (DNA, aptamer) TGCGGAGGAAGGTTCGACCATCGTGCGGGTAGGTAGACC/GAACCTGGGGGAGTAGGTCTACCTACCCGCACGATGGTC
The experiment in a line: UV melting first-peak height, Langmuir fit. The conditions noted are these: 150 mM NaCl, 5 mM MgCl2; 10 mM HEPES pH 7.4; 0.9 µM strands; peak normalized to dimer peak; apparent; per site.

As for `Nc1nc2c(ncn2[C@@H]2O[C@H](CO)[C@@H](O)[C@H]2O)c(=O)[nH]1`, the binding result in test [1] is given as “weak”.

The ΔTm is the change in melting temperature against a reference sample. For the compound `Nc1ncnc2c1ncn2[C@@H]1O[C@H](CO)[C@@H](O)[C@H]1O`, the ΔTm is 5.5 °C in test [2]; 2.5 °C in test [3]; 2.5 °C in test [4]; 2 °C in test [5]; < 1 °C in test [6]. Further, the binding entry in test [7] was “yes”. Moreover, in test [8], the KD is reported as 19 ± 2 µM.

The values are drawn from article PMC8068264 (2021).
